{
  "source": "patent US6406843B1",
  "about": "“Poultry virus isolates and method” (University of Arkansas, priority 1998, dated 2002)",
  "format_in_all_cases": "in vivo, chicken",
  "key": {"[1]": {"tested_on": "SPF white leghorn chickens", "assay": "Antigen Capture ELISA (AC-ELISA) for IBDV in tissue homogenates of challenged birds", "conditions": "challenge at 28 d post hatch ± REO S-1133 and/or copper sulfate 1 lb/ton", "excerpt": "On days 4 and 11 post challenge 10 birds were necropsied from each virus challenge group as well as an additional 10 birds from the negative control. Each bird was weighed, bled, and euthanized with CO2 gas. All bursae and proventriculi were scored for the presence of gross lesions during necropsy. The bursa, spleen, and proventriculus were individually weighed and weights recorded. Tissues from each of the first five birds were cut in half, with one half being placed into 10% buffered formalin, and the other half being placed into a sterile sampling bag (Fisher Scientific, Pittsburgh, Pa.). All tissues were pooled by organ and experimental treatment group into the buffered formalin and into the sampling bags. Tissues from the remaining five birds were placed only in the sterile sampling bags. Tissues in sterile sampling bags were frozen at −20° C. for later analysis utilizing Antigen Capture ELISA (AC-ELISA), as described by Snyder et al (11).\nMonoclonal antibody B-29 (University of Maryland, College Park, Md., Intervet Inc. , Millsboro, Del.) was diluted 1:10 in ice cold sterile distilled water. The solution was then acidified by the addition of 0.4 N sulfuric acid. The acidified monoclonal solution was incubated in an ice bath for one hour […]. Following incubation the acidified monoclonal antibody was diluted in 200 ml of coating buffer bringing the final dilution of monoclonal antibody to 1:10,000. ELISA optimized 96 well microtiter plates Corning #25805-96 (Corning Glass Works, Corning N.Y. 14831) were coated with 100 μl per well of a 1:10,000 dilution of monoclonal antibody B-29 (University of Maryland, College Park, Md.; Intervet, Inc., Millsboro Del.) ascitic fluid in coating buffer (Appendix). Plates were covered with individual plate sealers (Dynatech, Chantilly Va.), and incubated for 2 hours at 37° C. and then overnight at 4° C. Coated plates were washed three times with washing buffer (Appendix), with residual fluid being tapped out. Plates were allowed to air dry at room temperature and were then covered with individual plate sealers and stored at −20° C. until needed.\nInfectious bursal disease virus suspect tissues were homogenized in AC-ELISA dilution buffer (Appendix) at a ratio of 1:5 or approximately 20% tissue weight to volume. Homogenization was accomplished by use of a rubber mallet, followed by the addition of the dilution buffer. One hundred fifty μl of each bursal homogenate and 300 μl of each proventricular homogenate were placed in duplicate in a 96 well round bottom plate. The concentration of the bursa tissue was adjusted by addition of 150 μl of AC-ELISA dilution buffer. There was no additional dilution to the proventriculus tissue homogenates. […]"}, "[2]": {"tested_on": "SPF white leghorn chickens", "assay": "Microscopic (histopathological) lesions in bursa and proventriculus", "conditions": "for Microscopic lesions in the bursa, samples with lesions/screened / Microscopic lesions in the proventriculus, samples with lesions/screened: challenge at 28 d post hatch ± REO S-1133 and/or copper sulfate", "excerpt": "Tissues were placed in 10% buffered formalin at necropsy. Twenty-four hours later tissues were removed and manually trimmed to a thickness of ⅛ inch and placed in tissue cassettes. Tissues were dehydrated through graded alcohols, and cleared in two changes of toluene. Tissues were then infiltrated with paraffin over a 16-hour period using an autoprocessor. Following paraffin infiltration, tissues were positioned in paraffin blocks and trimmed to expose a uniform tissue face. Prepared tissue blocks were stored at −20° C. until ready to be sectioned. Sections were cut at a thickness of 5μm and floated on a water bath containing 5% gelatin before they were placed on standard 1×3 inch slides. Tissue sections were then stained using the standard method of Harris (41), for hematoxylin and eosin.\nTissues were examined microscopically for the presence of histopathological lesions induced by IBDV infection. […] Lesions in the bursa were predominantly lymphoid depletion with accompanied follicle degeneration Tissues were given a numerical index score based on the presence or absence of lesions as well as the intensity of the lesions. The scores ranged from a low of “0” which indicates no lesions or pathology observed to a high of “4” which indicates extensive tissue damage.\n(§1) Tissues were placed in buffered formalin at necropsy, and processed twenty-four hours later by the method described in Section 1 (55). Tissues were examined for the presence of histopathological lesions induced by IBDV infection. Lesions in the lamina propria of the proventriculus were predominantly pleomorphism of the lymphoid cells in the mucosa along with lymphocyte depletion. Lesions in the bursa were predominantly lymphoid depletion with accompanied follicle degeneration.\n(§2) Tissues were given a numerical index score based on the presence or absence as well as the intensity of the lesions present. The score ranged from a low of “0” which indicates no lesions or pathology observed to a high of “4” which indicates extensive tissue damage.\nTissues were placed in buffered formalin at necropsy, and processed twenty-four hours later by the method described in Section 1 (55). Tissues were examined for the presence of histopathological lesions induced by IBDV infection. Tissues were given a numerical index score based on the presence or absence as well as the intensity of the lesions present. The score ranged from a low of “0” which indicates no lesions or pathology observed to a high of “4” which indicates extensive tissue damage.\nTissues were placed in buffered formalin at necropsy, and processed twenty-four hours later by the method described in Section 1 (55). Tissues were examined for the presence of histopathological lesions induced by IBDV infection."}, "[3]": {"tested_on": "SPF white leghorn chickens", "assay": "Body weight after virus challenge", "excerpt": "(§3) On days 4 and 11 post challenge 10 birds were necropsied from each virus challenge group and an additional 10 birds from the negative control. Each bird was weighed, bled, and euthanized by CO2 asphyxiation. All birds were necropsied at which time the bursa, and proventriculus were scored for the presence of gross lesions. The bursa, spleen, and proventriculus were individually weighed and results recorded. Tissues from each of the birds were cut in half, with one half being placed into 10% buffered formalin, and the other half being placed into a sterile sampling bag (Fisher Scientific, Pittsburgh, Pa.). Tissues in sterile sampling bags were frozen at −20° C. for later analysis utilizing IBDV Antigen Capture ELISA(AC-ELISA), as described by Snyder et al (138).\nAll data was entered into Microsoft™ Excel (Microsoft Corp., Redmond, Wash.). and were analyzed using SAS (10) (SAS Institute Inc., Cary, N.C.). Statistical significance was determined at the P<0.05 level using General Linear Models Procedure and least squared means for body weight, bursa: body weight ratios, spleen: body weight ratios, and proventriculus: body weight ratios. In addition, statistical differences were determined for means of the numerical index scores for gross lesions in the bursa and proventriculus."}, "[4]": {"tested_on": "SPF white leghorn chickens", "assay": "TUNEL staining for apoptotic cells in bursa and proventriculus", "design": "key: + indicates the presence of specific fluorescence following TUNEL staining; ++: multiple “+'s” indicate visual intensity assessment; +++: multiple “+'s” indicate visual intensity assessment; ++++: multiple “+'s” indicate visual intensity assessment; −: scored as positive when present and negative when absent", "conditions": "4 days post challenge", "excerpt": "Formalin fixed tissues from experiments described in Section 3 were utilized in this staining procedure. All tissues utilized were harvested at 4 days post challenge with a 1× concentration of USDA/STC IBDV or Variant E/11084 IBDV. Tissues from specific birds were selected following an initial screening with hematoxylin and eosin stained sections. Tissue preparation and sectioning were as follows. Tissues were placed in 10% buffered formalin at necropsy. Twenty-four hours later tissues were removed, manually trimmed to a thickness of ⅛ inch and placed in tissue cassettes. Tissues were dehydrated through graded alcohols and cleared in two changes of toluene. Tissues were then infiltrated with paraffin over a 16 hour period using an autoprocessor. Following paraffin infiltration, tissues were positioned in paraffin blocks and trimmed to expose a uniform tissue face. Prepared tissue blocks were stored at −20° C. until ready to be sectioned. Sections were cut at a thickness of 5 μm and floated on a water bath containing 5% gelatin to facilitate attachment (55). […]\nTissue sections were prepared as described earlier and removed from storage at 4° C. […] Slides were stored at 4° C. overnight before viewing for the presence of fluorescence. Slides were viewed using an Olympus BX50 microscope equipped with a Olympus PM-C35X camera and Omega dye specific fluorescence filters (DAPI 385-395) (FITC 475-497). […]"}, "[5]": {"tested_on": "commercial broiler chickens", "assay": "AC-ELISA for IBDV in tissue homogenates of challenged broilers", "conditions": "broilers challenged 35 d post hatch", "procedure": "Broiler chickens were challenged or, day 35 post hatch (PH) with the USDA/STC IBDV prepared inoculum as described previously. Infectious bursal disease virus challenge was administered to each individual bird bilaterally to the eye (30 μl per eye) using an Eppendorf micropipettor (Brinkmann Inc., Westbury, N.Y.) and a sterile pipette tip (Costar Corp., Cambridge, Mass.).\nas §3, with “challenge 25” for “challenge 10”, “the bursa” for “the bursa,”\nAC-ELISA test plates were prepared as described earlier in Section 1. Tissues were homogenized in AC-ELISA dilution buffer at a ratio of 1:5 tissue weight to volume. Homogenates were analyzed in duplicate against IBDV monoclonal B-29 AC-ELISA plates as described earlier in Section 1. Plates were read and means were calculated for the paired samples within each group and the homogenates were determined to be positive or negative based on the mean absorbance values as compared to the negative and positive controls on each plate."}, "[6]": {"tested_on": "commercial broiler chickens", "assay": "Microscopic lesions in bursa and proventriculus of broilers", "conditions": "broilers challenged 35 d post hatch", "excerpt": "as §1, §2"}},
  "data": [
    {"smiles": "O=S(=O)([O-])[O-].[Cu+2]", "note": "[NC + CS, copper sulfate]", "values": [
      {"measurement": "AC-ELISA bursal homogenates, positive/tested", "setting": "[1]; day 4 post challenge", "result": "0/10"},
      {"measurement": "AC-ELISA proventricular homogenates, positive/tested", "setting": "[1]; day 4 post challenge", "result": "0/10"},
      {"measurement": "AC-ELISA bursal homogenates, positive/tested", "setting": "[1]; day 11 post challenge", "result": "0/10"},
      {"measurement": "AC-ELISA proventricular homogenates, positive/tested", "setting": "[1]; day 11 post challenge", "result": "0/10"},
      {"measurement": "Microscopic lesions in the bursa, samples with lesions/screened", "setting": "[2]; day 4 post challenge", "result": "0/10"},
      {"measurement": "Microscopic lesions in the proventriculus, samples with lesions/screened", "setting": "[2]; day 4 post challenge", "result": "0/10"},
      {"measurement": "Microscopic lesions in the bursa, samples with lesions/screened", "setting": "[2]; day 11 post challenge", "result": "0/10"},
      {"measurement": "Microscopic lesions in the proventriculus, samples with lesions/screened", "setting": "[2]; day 11 post challenge", "result": "0/10"},
      {"measurement": "Lesions in the proventriculus, gross or microscopic", "setting": "[2]; dietary copper levels used, without virus", "result": "no lesions in the proventriculus either gross or microscopic"},
      {"measurement": "Body weight gain vs negative control", "setting": "[3]; between day 4 and day 11 post challenge", "result": "significantly lower"},
      {"measurement": "Day 11 body weight means vs negative control", "setting": "[3]; day 11 post challenge", "result": "significantly different"},
      {"measurement": "TUNEL staining, bursa", "setting": "[4]", "result": "−"},
      {"measurement": "TUNEL staining, proventriculus", "setting": "[4]", "result": "−"},
      {"measurement": "AC-ELISA bursal homogenates, positive/tested", "setting": "[5]; day 4 post challenge", "result": "0/10"},
      {"measurement": "AC-ELISA proventricular homogenates, positive/tested", "setting": "[5]; day 4 post challenge", "result": "0/10"},
      {"measurement": "AC-ELISA bursal homogenates, positive/tested", "setting": "[5]; day 11 post challenge", "result": "0/10"},
      {"measurement": "AC-ELISA proventricular homogenates, positive/tested", "setting": "[5]; day 11 post challenge", "result": "0/10"},
      {"measurement": "Microscopic lesions in the bursa", "setting": "[6]; day 4 post challenge", "result": "0/10"},
      {"measurement": "Microscopic lesions in the proventriculus", "setting": "[6]; day 4 post challenge", "result": "0/10"},
      {"measurement": "Microscopic lesions in the bursa", "setting": "[6]; day 11 post challenge", "result": "9/10"},
      {"measurement": "Microscopic lesions in the proventriculus", "setting": "[6]; day 11 post challenge", "result": "0/10"}
    ]}
  ]
}
